{
  "source": "patent US8889699B2",
  "about": "“5-fluorouracil derivative” (Delta-Fly Pharma, Inc., priority 2009, dated 2014)",
  "key": {"[1]": {"tested_on": "human gastric cancer strain (SC-2)", "conditions": "14 days, day 15, Test Example 6", "protocol": "The resulting product was stirred with a stirrer at room temperature for about 10 minutes. […] Thereafter, ultrasonic treatment was performed under ice cooling for about 5 minutes, thereby obtaining a BOF-A2 drug liquid to be used at a dose of 14 mg/kg/day, 21 mg/kg/day, or 28 mg/kg/day. • (f) Experiment: The human gastric cancer strain (SC-2) was subcutaneously transplanted into the back of a BALB/cA-nu mouse and preliminarily proliferated therein. The proliferated strain was extracted, cut into about 2 mm square pieces with scissors in physiological saline, and subcutaneously inoculated to the right axillary region of mice of the same strain, 5 to 6 weeks of age, using a transplantation needle. […] Then, drug administration was initiated from the next day. Each of the test liquids shown in (a) to (e) above was administered orally to the mice in each of the test drug groups using a sonde for oral administration at a dose of 0.1 ml per 10 g body weight once a day for 14 continuous days. In the same manner as the above, the cancer-bearing mice in the control group were subjected to oral administration of only 0.5% HPMC liquid for 14 continuous days.\nThe tumor volume of each mouse in each group before the initiation of the treatment, on day 3, day 5, day 8 (1 week after), day 11, and day 15 (2 weeks after), i.e., after termination of the administration, was calculated using Equation 1 below, and respective relative tumor volume (RTV) relative to the tumor volume at the time of initiation of the treatment was calculated. In relation to the antitumor effect, the average value of the tumor proliferation inhibition ratio (IR; %) was calculated from the average tumor volume of each treatment group on day 15 (after termination of the treatment) relative to that of the control group on day 15, using Equation 2. […] Along therewith, a weight change ratio was calculated from the body weight of the mice at the time of the termination of the drug administration relative to the body weight of the mice at the time of the initiation of the administration, using Equation 3. […] Tumor volume(mm^3)=(major axis)×(minor axis)^2×½ Equation 1: Tumor proliferation inhibition ratio(IR, %)=[1−(average tumor volume of treatment group)/(average tumor volume of control group)]×100 Equation 2: Average weight change ratio(%)=[(average weight on Day 15)−(average weight on Day 1)]/(average weight on Day 1)×100 Equation 3: […]\nThe resulting product was stirred with a stirrer at room temperature for about 10 minutes. […] The proliferated strain was extracted, cut into about 2 mm square pieces with scissors in physiological saline, and subcutaneously inoculated to the right axillary region of mice of the same strain, 5 to 6 weeks of age, using a transplantation needle. […] Then, drug administration was initiated from the next day. Each of the test liquids shown in (a) to (c) above was administered orally to the mice in each of the test drug groups using a sonde for oral administration at a dose of 0.1 ml per 10 g body weight once a day for 14 continuous days. In the same manner as the above, the cancer-bearing mice in the control group were subjected to oral administration of only 0.5% HPMC liquid for 14 continuous days.\nThe tumor volume of each mouse in each group before the initiation of the treatment, on day 3, day 5, day 8 (1 week after), day 11, and day 15 (2 weeks after), i.e., after termination of the administration, was calculated using Equation 1 below, and respective relative tumor volume (RTV) relative to the tumor volume at the time of initiation of the treatment was calculated. In relation to the antitumor effect, the average value of the tumor proliferation inhibition ratio (IR; %) was calculated from the average tumor volume of each treatment group on day 15 (after termination of the treatment) relative to that of the control group on day 15, using Equation 2."}, "[2]": {"tested_on": "sarcoma 180 cells", "assay": "Inhibition of intracellular phosphorylation of 5-FU in cancer cells", "type": "cell-based, mouse", "conditions": "for inhibition at 10 µM / inhibition at 100 µM: Mus musculus, Sarcoma-180, 0.5 h", "protocol": "(§1) • (a) Test liquid preparation 1: Compound I-2 or I-10 of the present invention was dissolved to a concentration of 1 mM in cold physiological saline. The resulting product was further diluted 10-fold with physiological saline, yielding a 100-μM solution. • (b) Test liquid preparation 2: As an OPRT inhibitor, which inhibits the phosphorylation of 5-FU, citrazinic acid (Citra.A.) was dissolved to a concentration of 1 mM in cold physiological saline, and further diluted 10-fold with physiological saline, yielding a 100-μM solution. • (c) Preparation of cancer cell suspension: Ascites-type sarcoma 180 cells were preliminarily transplanted intraperitoneally into an ICR mouse and proliferated therein for use in the test as raw (intact) cells. The proliferated cells were isolated and then washed with physiological saline. […] Immediately after the completion of the reaction, 4 mL of a cold Hanks solution was added to the reaction solution, and the cells were washed and separated by centrifugation. After this procedure was repeated twice, 2 mL of a cold 5% trichloroacetic acid (TCA) solution was added to the cell pellet to disrupt the cells, and 5-FU and its nucleotide metabolites were extracted. Subsequently, a portion of the nucleic acid extract was applied to a silica gel 60F254 plate and developed with a mixed liquid comprising chloroform-methanol-acetic acid (17:3:1) to isolate the nucleotide moiety. The radioactivity thereof was measured and the concentration of 5-FU phosphorylation was measured.\nas §1, with “1: Compounds I-9, I-11, I-12, and I-13” for “1: Compound I-2 or I-10”, “invention were separately” for “invention was”, “saline. Each of the” for “saline. The”, “resulting products” for “resulting product”, “acid” for “acid (Citra.A.)”"}},
  "note": "Like-named read-outs stand apart in the source and are kept apart here.",
  "data": [
    {"smiles": "CCOCn1cc(F)c(=O)n(C(=O)c2cccc(C(=O)Oc3cc(OC(=O)c4cc(OC(=O)CC)nc(OC(=O)CC)c4)c(Cl)cn3)c2)c1=O", "note": "[Compound I-11, 3-{3-[4-(2,6-dipropionyloxyisonicotinoyloxy)-5-chloro-2-pyridyloxycarbonyl]benzoyl}-1-ethoxymethyl-5-fluorouracil]", "values": [
      {"measurement": "BWC (% initial)", "setting": "[1]; 26.7 mg/kg oral", "value": "+1.68 % initial"},
      {"measurement": "IR (%)", "setting": "[1]; 26.7 mg/kg oral, equivalent to 7.5 mg/kg of S-1", "value": 17.0, "unit": "%"},
      {"measurement": "BWC (% initial)", "setting": "[1]; 35.6 mg/kg oral", "value": "+1.82 % initial"},
      {"measurement": "IR (%)", "setting": "[1]; 35.6 mg/kg oral, equivalent to 10 mg/kg of S-1", "value": 32.0, "unit": "%"},
      {"measurement": "BWC (% initial)", "setting": "[1]; 44.5 mg/kg oral", "value": "−3.94", "unit": "% initial"},
      {"measurement": "IR (%)", "setting": "[1]; 44.5 mg/kg oral, equivalent to 12.5 mg/kg of S-1", "value": 47.3, "unit": "%"},
      {"measurement": "RNA Fraction", "setting": "[2]; Conc. 10 μM, 30 min. Incubation, 5-FU 2 μM, Table 6", "value": 40.71, "unit": "pmol/1 × 10^7 cells"},
      {"measurement": "RNA Fraction", "setting": "[2]; Conc. 100 μM, 30 min. Incubation, 5-FU 2 μM, Table 6", "value": 27.62, "unit": "pmol/1 × 10^7 cells"},
      {"measurement": "inhibition at 10 µM", "setting": "[2]; Conc. 10 μM, 30 min. Incubation, 5-FU 2 μM, Table 6, read-out: Inhibition (%) of phosphorylation of 5-FU", "value": 35.7, "unit": "%"},
      {"measurement": "inhibition at 100 µM", "setting": "[2]; Conc. 100 μM, 30 min. Incubation, 5-FU 2 μM, Table 6, read-out: Inhibition (%) of phosphorylation of 5-FU", "value": 56.4, "unit": "%"},
      {"measurement": "inhibition at 10 µM", "setting": "[2]; concentration of 10 μM, reaction for 30 minutes, read-out: percent inhibition of intracellular phosphorylation of 5-FU", "value": "35 to 57", "unit": "%"},
      {"measurement": "inhibition at 100 µM", "setting": "[2]; concentration of 100 μM, reaction for 30 minutes, read-out: percent inhibition of intracellular phosphorylation of 5-FU", "value": "56 to 63", "unit": "%"}
    ]}
  ]
}
